Here are results for two molecules from US20260069592A1 (WEISHANG (SHANGHAI) BIO-PHARMACEUTICAL CO., LTD., priority 2023, published 2026).

Structures are written as SMILES. Where two headings read alike, the source gives them in different places. Where only a bound is given, the exact number is not on record here.

Assay [1] has as its target EGFR L858R/C797S dual mutations (Homo sapiens, UniProt P00533, C797S/L858R). Briefly: Kinase inhibition assay (HTRF).
Experimental: (§2) At room temperature, 5 μL each of kinase, peptide substrate (TK-substrate-biotin), and ATP were added to the plate and incubated at room temperature for 40 minutes.
Assay [2] has as its target EGFR C797S (Homo sapiens, UniProt P00533, C797S). Nature of the assay: Kinase inhibition assay (HTRF).
Experimental: as §2
The target in assay [3] is EGFR Del19/C797S dual mutations (Homo sapiens, UniProt P00533, C797S, form not given). Nature of the assay: Kinase inhibition assay (HTRF).
In assay [4] the test system is Ba/F3 L858R/C797S cells. Briefly: Antiproliferative activity assay (CellTiter-Glo, 72 h). In kind it is cell-based. Conditions: for IC50: Mus musculus. The protocol: (§1) After incubating the cells in a 5% CO2 incubator at 37° C. for 72 hours, 25 μL of CellTiter-Glo reagent (CTG) was added to each well and the plate was gently shaken and incubated in a 5% CO2 incubator at 37° C. (protected from light) for 30 minutes. […] was measured using the Envision reader.

Assay [5] concerns Ba/F3 Del19/C797S cells. Described as above. In kind it is cell-based. The following applies: for IC50: Mus musculus. As for the experimental part: as §1
For assay [6], the target named is EGFR L792H (Homo sapiens, UniProt P00533, L792H). Nature of the assay: Kinase inhibition assay (HTRF).
Experimental: as §2

Turning to `C#Cc1cccc(Nc2ncnc3cc(OC)c(O[C@@H]4CCN(C)CC4(F)F)cc23)c1F` [Quinazoline derivative (I), (R)-6-[(3,3-difluoro-1-methylpiperidin-4-yl)oxy]-N-(3-ethynyl-2-fluorophenyl)-7-methoxyquinazolin-4-amine], the IC50 turned out to be 0.037 nM in assay [1]; 0.95 nM in assay [2]; 0.131 nM in assay [3]; 2.56 nM in assay [4] (BaF3, Ba/F3 L858R/C797S, 72 hours, CellTiter-Glo, read-out: IC50); 0.27 nM in assay [5] (BaF3, Ba/F3 Del19/C797S, 72 hours, CellTiter-Glo, read-out: IC50); 3.42 nM in assay [6]. Further, the “Relative bioactivity, times that of osimertinib” value is about 93118 times in assay [1] (EGFR L858R/C797S kinase); over 1052 times in assay [2] (EGFR C797S kinase); about 498 times in assay [3]; “approximately 490 times” in assay [4] (Ba/F3 L858R/C797S); about 4900 times in assay [5] (Ba/F3 Del19/C797S); about 49 times in assay [6] (EGFR L792H kinase). The Relative potency % in assay [1] (EGFR L858R/C797S kinase) is 9311751.9%; in assay [2] (EGFR C797S kinase) it was over 105263%; in assay [3], 49809.0%; in assay [6] (EGFR L792H kinase) it was 4918%. Also, the “Relative potency % (Osimertinib IC50/Quinazoline derivative (I) IC50×100%)” value in assay [4] (Ba/F3 L858R/C797S) turned out to be 49004.3%; in assay [5] (Ba/F3 Del19/C797S), 490370.4%.

On to `C=CC(=O)Nc1cc(Nc2nccc(-c3cn(C)c4ccccc34)n2)c(OC)cc1N(C)CCN(C)C` [Osimertinib, osimertinib, reference compound], for which the IC50 in assay [4] (BaF3, 72 h) is 1260 nM; in assay [5] (BaF3, 72 h) it was 1320 nM.
